Measured values published in US10357483B2, “Methods comprising dosing combinations for reducing undesired humoral immune responses” (Selecta Biosciences, Inc., priority 2013, dated 2019).

How the values were obtained:
[1] = test system: HuTNFαTg; assay: Arthritis scores of limbs in arthritic animals (Example 14); type: in vivo; settings: HUMIRA s.c. weekly weeks 5-10; nanocarriers with first 3 injections
Experimental: Age-matched HuTNFαTg 5 week old female animals were either injected s.c. in the subscapular area with saline (PBS) or 60 μg or 200 μg of HUMIRA weekly (weeks 5-10) or with a mixture of 60 μg of Humira and 0.87 mg of tolerogenic nanoparticles (first dosings) for the first 3 injections (week 5 to 7 of age) followed by 3 weekly injections of HUMIRA alone (same amounts) (second dosings) (weeks 8 to 10 of age). The results in FIG. 11 (left panel) show the antibody titers in the blood of all animals at different time points. […] FIG. 12 illustrates the dosing regimen.

[2] = test system: C57BL/6; assay: Anti-HUMIRA antibody titers in blood; type: in vivo, mice; settings: day 21; 60 μg HUMIRA s.c. weekly; 0.9 mg nanocarrier admixed on day 0 only
Experimental: Control C57BL/6 age-matched (5-6 weeks) females were injected subcutaneously (s.c.) in the front limbs with 60 μg of HUMIRA once a week until day 29 (on d0, 7, 14, 22, 29, across all groups and conditions). […] The results presented in FIG. 3A show the antibody titers in the blood of all animals at day 21. […] At day 29, the animals received another challenge in one hind limb (a further second dosing) while the other hind limb received saline in order to test the local antibody-mediated type I hypersensitivity response. For this, the thickness of the hind limbs were measured with the help of a caliper one hour after the injection.

[3] = test system: huTNFaTg; assay: Arthritis scores of limbs in arthritic animals (Example 9); type: in vivo, mice; settings: 60 μg HUMIRA s.c. weekly, weeks 5 to 15 of age; 0.87 mg nanocarriers with first 7 injections
Experimental: (§1) Transgenic animals overexpressing human tumor necrosis factor alpha (huTNFaTg) develop progressive rheumatoid arthritis over the course of 20 weeks from birth. This process can be prevented by using the fully human anti-human TNFα antibody HUMIRA/adalimumab. However, repetitive administration of the initial therapeutic dose of HUMIRA (60 μg) leads to anti-drug antibody formation (ADA) that neutralizes the therapeutic benefit. Only very high doses can then maintain the therapeutic benefit and surmount the neutralizing immune response. For example, it is thought that about 200 μg is needed to effect maximal inhibition of inflammation in an example of such a mouse model (Binder et al., Arthritis & Rheumatism, Vol. 65 (No. 3), March 2013, pp. 608-617).
(§2) The results in FIG. 9A show the antibody titers in the blood of all animals at day 21.

[4] = test system: HuTNFαTg; assay: Anti-HUMIRA antibody titers in arthritic animals (Example 14); type: in vivo; settings: HUMIRA s.c. weekly weeks 5-10; 0.87 mg nanoparticles with 60 μg Humira for first 3 injections
Experimental: Anti-HUMIRA immune and neutralizing responses in arthritic animals were evaluated. Transgenic animals overexpressing human tumor necrosis factor alpha (huTNFαTg) develop progressive rheumatoid arthritis over the course of 20 weeks from birth. This process can be prevented by using the fully human anti-human TNFα antibody Adalimumab or HUMIRA. However repetitive administration of the initial therapeutic dose of HUMIRA (60 μg) leads to anti-drug antibody formation (ADA) that neutralizes the therapeutic benefit. Higher quantities of Humira (200 μg can be injected to overcome this antagonizing immune response to allow for the therapeutic effect of Humira. Age-matched HuTNFαTg 5 week old female animals were either injected s.c. in the subscapular area with saline (PBS) or 60 μg or 200 μg of HUMIRA weekly (weeks 5-10) or with a mixture of 60 μg of Humira and 0.87 mg of tolerogenic nanoparticles (first dosings) for the first 3 injections (week 5 to 7 of age) followed by 3 weekly injections of HUMIRA alone (same amounts) (second dosings) (weeks 8 to 10 of age). The results in FIG. 11 (left panel) show the antibody titers in the blood of all animals at different time points. […] FIG. 12 illustrates the dosing regimen.

[5] = test system: huTNFaTg; settings: such a mouse model; Binder et al. 2013; cited from earlier work
[6] = test system: huTNFaTg; assay: Anti-HUMIRA antibody titers in arthritic animals (Example 9); type: in vivo, mice; settings: 60 μg HUMIRA s.c. weekly; 0.87 mg nanocarriers with first 7 injections; FIG. 9A day 21
Experimental: as §1, §2

[7] = test system: C57BL/6; assay: Anti-KRYSTEXXA IgM antibody titers; type: in vivo, mice; settings: 0.9 mg nanocarriers + 40 μg KRYSTEXXA i.v. days −21 and −14; then 100 μg KRYSTEXXA + 20 μg CpG s.c. day 0 to 28
Experimental: All animals received weekly injections from day 0 to day 28 of 100 μg of KRYSTEXXA combined with 20 μg of CpG s.c. in the hind limb (d0, 7, 12, 28).

[8] = test system: C57BL/6; assay: Anti-OVA and anti-KLH IgG antibody titers (Example 7); type: in vivo, mice; settings: day 54; pOVA 2.5 μg i.v. weekly; 0.2 mg nanocarriers admixed days 0, 7, 14
Experimental: The control group of C57BL/6 age-matched (5-6 weeks) female were injected i.v. in the tail vein with 2.5 μg of an immunogenic form of particulate Ovalbumin (pOVA) and 2 μg of Keyhole Limpet Hemocyanin (KLH) s.c. in the hind limb once a week for 49 days (d0, 7, 14, 20, 28, 35, 42, 49).

Molecule: adalimumab [HUMIRA]
- arthritis scores (disease progression) [1]: significant blockade of the disease progression
- anti-HUMIRA antibody titers [2]: robust antibody response against HUMIRA
- arthritis scores (disease progression) [3]: significant blockade of the disease progression
- anti-HUMIRA antibody titers [4]: robust anti-HUMIRA antibody response
- dose needed to effect maximal inhibition of inflammation [5]: about 200 μg
- anti-HUMIRA antibody titers [6]: robust antibody response

Molecule: pegloticase [KRYSTEXXA]
- anti-KRYSTEXXA IgM antibody titers [7]: develop an immune response against KRYSTEXXA

B1: pOVA: immunogenic form of particulate Ovalbumin (protein, UniProt P01012 2-386, looked up)
Ovalbumin: GSIGAASMEFCFDVFKELKVHHANENIFYCPIAIMSALAMVYLGAKDSTRTQINKVVRFDKLPGFGDSIEAQCGTSVNVHSSLRDILNQITKPNDVYSFSLASRLYAEERYPILPEYLQCVKELYRGGLEPINFQTAADQARELINSWVESQTNGIIRNVLQPSSVDSQTAMVLVNAIVFKGLWEKAFKDEDTQAMPFRVTEQESKPVQMMYQIGLFRVASMASEKMKILELPFASGTMSMLVLLPDEVSGLEQLESIINFEKLTEWTSSNVMEERKIKVYLPRMKMEEKYNLTSVLMAMGITDVFSSSANLSGISSAESLKISQAVHAAHAEINEAGREVVGSAEAGVDAASVSEEFRADHPFLFCIKHIATNAVLFFGRCVSP
modifications: particulate form
notes: immunogenic form of particulate Ovalbumin
- anti-OVA IgG antibody titers [8]: robust immune response against OVA and KLH
